{
  "source": "patent US20070212773A1",
  "about": "“Electrical signal measuring device for cells in culture and electrical signal measuring method that uses same device” (priority 2006, published 2007)",
  "system": "intestinal Caco-2 cells",
  "assay": "Impedance measurement of Caco-2 cells in culture after adding cupric chloride",
  "type": "cell-based",
  "excerpt": "The device used is specifically described as follows. That is, the support body is made of PDMS, and the size of the compartment in the support body (the combined size of the upper compartment and the lower compartment) is 15 mm in length, 6 mm in width, and 1.6 mm in height. This compartment is divided into an upper compartment and a lower compartment each with a height of approximately 0.8 mm using a polyester porous membrane which is provided with a diameter of 0.4 μm and a thickness of 14 μm (code 3450, made by CORNING INC.). Gold-plated brass nail-shaped objects with a length of 15 mm, an external diameter of 0.5 mm, and its circular head portion with a thickness of 0.4 mm and a diameter of 1.2 mm are used as the upper electrode and the lower electrode using a flat surface of the head portion as a measuring surface. Also, the upper electrode is fixed to the support body with its surface opposite to the surface facing the lower electrode in contact with the inside surface of the upper support body, while the lower electrode is fixed to the support body with its surface facing the upper electrode in contact with the semipermeable membrane. At this time, the distance between the surfaces of the upper electrode that faces the lower electrode and the lower electrode is 0.4 mm. Then, these electrodes are connected to an alternating-current power supply. Culturing conditions: As the culture medium, 10% fetal bovine serum, 1% MEM nonessential amino acid solution, 20 mM HEPES buffer solution, […] penicillin, 100 μg streptomycin, and 1 μg amphotericin added to DMEM (Dulbecco's Minimum Essential Medium) is used, and culturing is performed at an ambient temperature of 37 degrees C., with the carbon dioxide concentration maintained at 5%. Measurement condition: Measurement is performed by using a commercially available impedance analyzer, by applying an AC electrical field of 10 mV amplitude (1 Hz to 10 MHz) across the electrodes. Using the device used in Example 1, while culturing intestinal Caco-2 cells to which cupric chloride is added; impedance of the cells was measured. The culturing conditions of the cells and impedance measurement conditions are the same as in Example 1. The culture medium was replaced every two days, with the impedance measurement being performed before and after the culture medium replacement. Culturing was normally performed until the seventh day from the start of culturing. After impedance measurement, cupric chloride was added to a concentration of 30 μM to the culture medium, and the cell culturing was continued as it was from the moment directly after the cupric chloride was added (0 hours) to four hours after the addition. After the passage of four hours, the impedance was measured, and the culture medium containing the cupric chloride was washed away by a culture medium not containing the cupric chloride, accordingly washing was performed while the cells in culture were remained in the device. During this period, the impedance of the cells in culture was arbitrarily measured. In the legend shown in FIG. 3, “3 days” means the third day from the start of culturing, while “7 days (4 hours after addition)” means four hours after addition of cupric chloride to the culture medium on the seventh day from the start of culturing.",
  "data": [
    {"smiles": "[Cl][Cu][Cl]", "note": "[cupric chloride]", "values": [
      {"measurement": "change in impedance amplitude (membranous structure)", "setting": "30 μM for 4 h, then washed, 25 hours after the addition, breakdown of the membranous structure", "value": "reduction"},
      {"measurement": "impedance phase θ around 10^6 Hz region", "setting": "30 μM for 4 h, then washed, 25 hours after the addition, curve shifted to higher frequency side", "value": "−53", "unit": "degrees"},
      {"measurement": "impedance phase θ around 10^6 Hz region", "setting": "30 μM for 4 h, then washed, 48 hours after the addition, curve shifted to lower frequency side", "value": "−58", "unit": "degrees"},
      {"measurement": "change in impedance amplitude (membranous structure)", "setting": "30 μM for 4 h, then washed, 48 hours after the addition, renewal of the membranous structure", "value": "increase"},
      {"measurement": "change in impedance amplitude (membranous structure)", "setting": "30 μM in culture medium, added on seventh day of culturing, until four hours from the addition", "value": "hardly any changes"},
      {"measurement": "change in impedance phase spectra curve", "setting": "30 μM, added on seventh day of culturing, until four hours from the addition", "value": "without large changes"}
    ]}
  ]
}
